The target of test [1] is G115 Vγ9Vδ2+ γδTCR, wild type, on cells. The test can be described thus: flow cytometry, tetramer-PE versus anti-CD3ε-APC on Jurkat G115 Vγ9Vδ2+ γδTCR cells. For orientation: Flow cytometry measures light scatter and fluorescence of single cells or particles in a stream.
Another test deals with Vγ9Vδ2 cells. The test can be described thus: Luminex (Vγ9Vδ2): cytokine/chemokine secretion by pre-expanded Vγ9Vδ2 cells.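 Note: Vγ9Vδ2 cells purified from PBMC, activated 48 h with CD3 and CD28 plus IL-2, expanded 14 days in IL-2, then thawed and rested overnight in IL-2.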 The settings on record: 16 hrs, antibodies 10 μg/ml, Zoledronic acid 4 μM, HMBPP 0.5 ng/ml, duplicates, 0 set to 0.1. Format: cell-based, human.
Test [2] deals with in vitro pre-expanded CD3+Vδ2+ γδ T cells. The test can be described thus: HMBPP or anti-CD3/anti-CD28 activation of purified in vitro-expanded Vδ2+ T cells ± neutralizing anti-BTN2A1 mAb. Format: cell-based, human. To be noted: HMBPP 0.5 ng/ml, 10 μg/ml neutralizing anti-BTN2A1 mAb, no APCs. As to the method: CD25 expression was determined by flow cytometry, and IFN-γ concentration was determined by cytometric bead array (BD Bioscience) as per manufacturer instructions.

The next test concerns γδ T cells. Put plainly: Identification of BTN2A1 agonistic antibodies: CD25 and interferon γ of expanded γδ T cells. Format: cell-based, human. To be noted: 10 μg/ml antibody overnight, vs isotype control BM4. How it is done: In some experiments γδ T cells were enriched by MACS using PE-Cy7-conjugated anti-γδTCR followed by anti-phycoerythrin-mediated magnetic bead purification (Miltenyi Biotec). After enrichment CD3+Vδ2+ γδ T cells were further purified by sorting using an Aria III (BD). Enriched γδ T cells were stimulated in vitro for 48 h with plate-bound anti-CD3ε (OKT3, 10 ug/ml, Bio-X-Cell), soluble anti-CD28 (CD28.2, 1 ug/ml, BD Pharmingen), phytohemagglutinin (0.5 μg/ml, Sigma), IL-15 (50 ng/ml), and recombinant human IL-2 (100 U/ml, PeproTech), followed by maintenance with IL-2 and IL-15 for 14-21 d. Cells were cultured in complete medium consisting of a 50:50 (v/v) mixture of RPMI-1640 and AIM-V (Invitrogen) supplemented with 10% (v/v) FCS (JRH Biosciences), penicillin (100 U/ml), streptomycin (100 μg/ml), Glutamax (2 mM), sodium pyruvate (1 mM), nonessential amino acids (0.1 mM), and HEPES buffer (15 mM), pH 7.2-7.5 (all from Invitrogen Life Technologies), plus 50 μM 2-mercaptoethanol (Sigma-Aldrich).
The inventors screened the panel of antibodies specific for BTN2A1, as described above, to identify those able to agonise BTN2A1. The inventors assessed the ability of anti-BTN2A1 antibodies to activate γδ T cells. The inventors assessed upregulation of CD25 on the surface of previously expanded γδ T cells following culturing the cells with 10 μg/ml anti-BTN2A1 antibodies or isotype control antibody (BM4) overnight.
The inventors additionally measured levels of interferon γ secreted by γδ T cells following culture in the presence of 10 μg/ml anti-BTN2A1 antibodies or isotype control antibody (BM4) overnight. Interferon γ secretion is another indicator of TCR-dependent activation.

The mark [3] stands for this setting: γδT cells from patient 1 (melanoma patient).

Values joined by “and” are separate entries in the source; they are usually repeats but may differ in a detail not shown here. Equal entries are not always repeated.

Procedure for Vγ9Vδ2 cells: Briefly, Vγ9Vδ2 cells were isolated from 1 healthy donor (Red Cross Australia) and 1 cancer patient derived PBMC using TCRγ/δ+ T Cell Isolation Kit (Miltenyi). Cells were stimulated for 48 hours in TCRPMI supplemented with 100u/ml IL-2, CD3 (10 μg/ml) and CD28 (1 μg/ml). Cells were washed and grown for 14 days in TCRPMI supplemented with 100u/ml IL-2 at 37 degrees C. and 5% CO2, and then frozen down. […] Vγ9Vδ2 were defrosted and rested overnight in TCRPMI supplemented with 50u/ml IL-2 at 37 degrees C. and 5% CO2. […] All samples were run with appropriate controls and standards.

As for “BTN2A1 tetramer-PE (biotinylated BTN2A1 ectodomain tetramerized with streptavidin-PE) (ligand)”, in test [1], the cells in the BTN2A1 tetramer+ gate (%) was determined as 100%.

As to `O=P(O)(O)C(O)(Cn1ccnc1)P(=O)(O)O` [Zoledronate, zoledronate, reference compound], in the test on Vγ9Vδ2 cells (γδT cells from a healthy donor), the GMCSF was 254.29 pg/mL and 268.62 pg/mL; the ICAM-1 is 490.35 pg/mL and 504.11 pg/mL; the IFNγ was 58.38 pg/mL and 58.97 pg/mL; the IL-4 stood at 0.1 pg/mL. In the test on Vγ9Vδ2 cells (γδT cells from a healthy donor), the IL-8 is 0.1 pg/mL; the IL-13 is 5.22 pg/mL and 4.43 pg/mL; the IL-17A came out at 0.1 pg/mL; the MIP-1a was 121.61 pg/mL and 125.27 pg/mL. Also, in the test with Vγ9Vδ2 cells (γδT cells from a healthy donor), the MIP-1b is 1280.91 pg/mL and 1334.19 pg/mL; the TNFα is 13.03 pg/mL and 13.02 pg/mL; the sE-selectin was found to be 190.9 pg/mL; the sP-Selectin is 200.54 pg/mL and 313.85 pg/mL. Besides, in the test with Vγ9Vδ2 cells (setting [3]), the GMCSF is 650.17 pg/mL and 619.93 pg/mL; the ICAM-1 is 968.87 pg/mL and 888.51 pg/mL; the IFNγ is 175.86 pg/mL and 171.42 pg/mL; the IL-4 was 7.43 pg/mL and 7.68 pg/mL. In addition, in the test with Vγ9Vδ2 cells (setting [3]), the IL-8 is 0.1 pg/mL; the IL-13 was 235.43 pg/mL and 219.81 pg/mL; the IL-17A is 3.5 pg/mL and 4.08 pg/mL; the MIP-1a was 274.25 pg/mL and 273.85 pg/mL. In the test on Vγ9Vδ2 cells (setting [3]), the MIP-1b is 5061.49 pg/mL and 4756.68 pg/mL; the TNFα is 105.84 pg/mL and 102.44 pg/mL; the sE-selectin was 259.01 pg/mL and 287.88 pg/mL; the sP-Selectin is 1239.34 pg/mL and 1299.54 pg/mL.

As to “Glycosylated BTN2A1 tet. (simple glycans) (from UniProt Q7KYR7) (ligand)”, the cells in the BTN2A1 tetramer+ gate (%) in test [1] worked out at 100%.

B1: clone 267: anti-BTN2A1 mAb, partial inhibitor; VH SEQ ID NO: 132, VL SEQ ID NO: 133 (antibody, V domains shown)
VH: EVQLLESGGGLVQPGGSLRLSCAASGFTFSTYVMYWVRQAPGKGLEWVSSISPSGGLTVYVDSVKGRFTISRDNSKNTLYLQMNSLRAEDTAVYYCARVGYSSSDIWGQGTMVTVSS
VL: QYELTQPHSVSESPGKTVTISCTRNGGSIASNAVQWYQQRPGSAPITVIYDDSQRPSGVPDRFSGSIDSSSNTASLTISGLTTEDEADYYCLSFDTTSQIFGGGTKLTVL
modifications: amino acid sequence of clone 267 VH; amino acid sequence of clone 267 VL
In the case of B1, the “HMBPP-induced activation (CD25 upregulation, IFN-γ production)” value (“HMBPP-induced activation” below) in test [2] is given as “only a partial inhibitor”.

B2: clone 236: neutralizing anti-BTN2A1 mAb; VH SEQ ID NO: 116, VL SEQ ID NO: 117 (antibody, V domains shown)
VH: EVQLLESGGGLVQPGGSLRLSCAASGFTFSHYSMSWVRQAPGKGLEWVSGISSSGGFTPYADSVKGRFTISRDNSKNTLYLQMNSLRAEDTAVYYCTGGSGFDIWGQGTMVTVSS
VL: DIQMTQSPSTLSVSVGDRVTITCRASQTISSWLAWFQQKPGQAPKLLIYRASTLETGVPSRFSGSESGTTFTLTINGLQPDDLATYYCQQYATFPWTFGQGTKVEVK
modifications: amino acid sequence of clone 236 VH; amino acid sequence of clone 236 VL
With B2, the “HMBPP-induced activation” value in test [2] was “failed to upregulate CD25 and produce IFN-γ”.

B3: clone 266: neutralizing anti-BTN2A1 mAb; VH SEQ ID NO: 124, VL SEQ ID NO: 125 (antibody, V domains shown)
VH: EVQLLESGGGLVQPGGSLRLSCAASGFTFSMYTMMWVRQAPGKGLEWVSGIGSSGGHTKYADSVKGRFTISRDNSKNTLYLQMNSLRAEDTAVYYCARYGHTFETWGQGTMVTVSS
VL: QYELTQPPSASGTPGQRVTISCSGSSSNIGSNYVYWYQQLPGTAPKLLIYRNNQRPSGVPDRFSGSKSGTSASLAISGLRSEDEADYYCAAWDDSLSGSYVFGTGTKVTVL
modifications: amino acid sequence of clone 266 VH; amino acid sequence of clone 266 VL
With B3, the “HMBPP-induced activation” value in test [2] is “failed to upregulate CD25 and produce IFN-γ”.

B4: antibody 244: agonistic anti-BTN2A1 antibody; VL SEQ ID NO: 140, VH SEQ ID NO: 144 (antibody, V domains shown)
VH: EVQLLESGGGLVQPGGSLRLSCAASGFTFSEYSMSWVRQAPGKGLEWVSRIGPSGGGTVYADSVKGRFTISRDNSKNTLYLQMNSLRAEDTAMYYCARLGRGAVAELDYWGQGTLVTVSS
VL: QSVLTQPHSVSESPGKTVTISCTRSSGRIGSNYVHWYQHLPGRAPKLLIYGNSNRPSGVPDRFSGSKSGTSASLAITGLQADDEADYYCQTYDNNVWVFGGGTKLTVL
modifications: amino acid sequence of the VH of antibody 244; amino acid sequence of the VL of antibody 244
As to B4, in the test on γδ T cells, the “level of secreted interferon γ” value is reported as “increase the level of secreted interferon γ” and the “percentage of γδ T cells expressing CD25” value is “increase the percentage of γδ T cells expressing CD25”.

(Values after patent US20220273713A1, “METHOD OF INHIBITING OR ACTIVATING GAMMA DELTA T CELLS” (The University of Melbourne, priority 2019, published 2022).)
